23 compounds from US20250051347A1, “BIFUNCTIONAL CHIMERIC HETEROCYCLIC COMPOUND AND USE THEREOF AS ANDROGEN RECEPTOR DEGRADER” (Hinova Pharmaceuticals, Inc., priority 2021, published 2025) can be followed below.

The target in series [1] is T1, androgen receptor (AR) splicing variant AR-v7 (Homo sapiens, UniProt P10275).
T1 construct: The degradation activity of compounds on AR-v7 in 22RV1 cells; host or cells: 22RV1 cells
T1 sequence (P10275 1-644 isoform P10275-3): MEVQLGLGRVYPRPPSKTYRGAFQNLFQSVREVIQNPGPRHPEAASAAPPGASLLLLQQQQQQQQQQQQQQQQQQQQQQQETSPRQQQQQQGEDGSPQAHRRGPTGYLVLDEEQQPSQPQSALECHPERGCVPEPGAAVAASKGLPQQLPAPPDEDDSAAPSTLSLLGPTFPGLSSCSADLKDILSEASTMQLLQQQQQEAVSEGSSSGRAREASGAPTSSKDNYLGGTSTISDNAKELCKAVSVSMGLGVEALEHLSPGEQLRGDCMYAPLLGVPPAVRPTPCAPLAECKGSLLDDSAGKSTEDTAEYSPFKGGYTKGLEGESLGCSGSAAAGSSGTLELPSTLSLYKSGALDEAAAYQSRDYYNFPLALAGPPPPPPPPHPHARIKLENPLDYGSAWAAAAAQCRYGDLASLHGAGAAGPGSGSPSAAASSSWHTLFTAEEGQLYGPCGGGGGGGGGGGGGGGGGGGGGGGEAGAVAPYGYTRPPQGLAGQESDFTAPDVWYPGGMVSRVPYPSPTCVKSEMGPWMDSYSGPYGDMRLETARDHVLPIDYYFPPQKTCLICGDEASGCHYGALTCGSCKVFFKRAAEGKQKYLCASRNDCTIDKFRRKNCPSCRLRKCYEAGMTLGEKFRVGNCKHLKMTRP
Put plainly: Degradation activity on androgen receptor splicing variant AR-v7 in 22RV1 cells (ELISA). It counts as cell-based. The conditions noted are these: AR-v7 degradation in 22RV1 cells, 48 h.

The nature of series [2]: Pharmacokinetics in mice (plasma exposure after oral administration). It counts as in vivo. The note with it: mouse, ICR mice, oral (i.g.) 3 mg/kg, read-out: After oral administration of 3 mg/kg, mouse plasma exposure AUCinf. How it is done: • LC-20AD high performance liquid chromatography (SHIMADZU, Japan) • API4000 triple quadrupole mass spectrometer (Applied Biosystem, USA) • Phenix Winnolin Pharmacokinetic software (Version 6.3, Certara, USA) • High speed freezing centrifuge (Thermo Fisher Scientific) • Analytical balance (Sartorius, SECURA225D-ICN) • ICR mice (Chengdu Dossy Experimental Animals CO., LTD.)
A suitable amount of drug was accurately weighed, and then the medium (5% DMSO, 15% HS-15, 80% DSW) was added to prepare the solution at a concentration of 0.1 mg/ml (i.v.) and 0.3 mg/ml (i.g.).
18 healthy adult ICR mice were divided into two groups (9 mice for i.v. group; 9 mice for i.g. group), and administered by tail vein or by gavage after fasting overnight (free drinking water); using the satellite blood collection method, 3 animals were collected at each time point, and then 0.1 ml of blood obtained at different time points was anticoagulated with EDTA-K2, centrifuged at 4° C. for 5 min to separate the plasma, and stored at −80° C. for detection. The sampling time points after i.v. administration were 5 min, 15 min, 0.5 h, 1 h, 2 h, 4 h, 8 h, 12 h, and 24 h; while the sampling time points for i.g. group were before administration (0 h) as well as 0.5 h, 1 h, 2 h, 4 h, 6 h, 8 h, 12 h, and 24 h after administration. Then, the drug concentration in plasma was determined by LC/MS/MS.

Some results are limits rather than exact numbers.

As for `CC(C)(c1ccc(OCc2ccnc(N3CC4(COC4)C3)n2)cc1)c1ccc(O[C@H]2C[C@@H](Nc3cc4c(cc3F)C(=O)N(C3CCC(=O)NC3=O)C4=O)C2)cc1` (stereo partly shown) [Example 90, 5-(((1s,3s)-3-(4-(2-(4-((2-(2-oxa-6-azaspiro[3.3]heptane-6-yl)pyrimidin-4-yl)methoxy)phenyl)propan-2-yl)phenoxy)cyclobutyl)amino)-2-(2,6-dioxopiperidin-3-yl)-6-fluoroisoindolin-1,3-dione], the 50% degradation concentration (DC50) in series [1] (class symbols) is 11 to 100 nM. Further, the AUC(0-inf) in series [2] was 1000 to 5000 ng·h/mL.
The matching figures for `O=C1CCC(N2C(=O)c3ccc(N[C@H]4C[C@H](Oc5ccc(Oc6ccc(Oc7ncc(-n8nccn8)cn7)cc6)cc5)C4)cc3C2=O)C(=O)N1` (stereo partly drawn) [Example 122, 5-(((trans)-3-(4-(4-((5-(2H-1,2,3-triazol-2-yl)pyrimidin-2-yl)oxy)phenoxy)phenoxy)cyclobutyl)amino)-2-(2,6-dioxopiperidin-3-yl)isoindolin-1,3-dione]: 11 to 100 nM and 5000 to 30000 ng·h/mL.
For `CC(C)(c1ccc(OCc2ccnc(N3CC4(COC4)C3)n2)cc1)c1ccc(OC2CN(Cc3ccc4c(c3)C(=O)N(C3CCC(=O)NC3=O)C4=O)C2)cc1` (stereo not shown) [Example 148], the DC50 in series [1] (class symbols) fell in the range of 101 to 1000 nM. For the same compound, the AUC(0-inf) in series [2] is 1000 to 5000 ng·h/mL.
For the compound `CC(C)(c1ccc(Oc2ccnc(-n3nccn3)c2)cc1)c1ccc(O[C@H]2C[C@H](Nc3ccc4c(c3)C(=O)N(C3CCC(=O)NC3=O)C4=O)C2)cc1` (stereo partly shown) [Example 164], in series [1] (class symbols), the half-maximal degradation concentration (DC50) fell in the range of 11 to 100 nM. For the same compound, the AUC(0-inf) in series [2] was in the range of 5000 to 30000 ng·h/mL.
Taken in the same sequence, the figures for `Cc1nnc(-c2ccnc(Oc3ccc(C(C)(C)c4ccc(O[C@H]5C[C@H](Nc6ccc7c(c6)C(=O)N(C6CCC(=O)NC6=O)C7=O)C5)cc4)cc3)n2)o1` (stereo partly shown) [Example 171] were 11 to 100 nM and 5000 to 30000 ng·h/mL.
The matching figures for `CC(C)(c1ccc(OCc2ccnc(O[C@@H]3CCNC3)n2)cc1)c1ccc(O[C@H]2C[C@@H](Nc3ccc4c(c3)C(=O)N(C3CCC(=O)NC3=O)C4=O)C2)cc1` (stereo partly shown) [Example 242]: 11 to 100 nM and 100 to 1000 ng·h/mL.
Taken in the same sequence, the figures for `Cc1noc(-c2cccc(COc3ccc(C(C)(C)c4ccc(O[C@H]5C[C@H](Nc6ccc7c(c6)C(=O)N(C6CCC(=O)NC6=O)C7=O)C5)cc4)cc3)n2)n1` (stereo partly shown) [Example 282] were 11 to 100 nM and 1000 to 5000 ng·h/mL.
`Cc1nnc(-c2ccc(Oc3ccc(C(C)(C)c4ccc(O[C@H]5C[C@H](Nc6ccc7c(c6)C(=O)N(C6CCC(=O)NC6=O)C7=O)C5)cc4)cc3)cc2)o1` (stereo partly shown) [Example 322, 2-(2,6-dioxopiperidin-3-yl)-5-((1r,3r)-3-(4-(2-(4-(4-(5-methyl-1,3,4-oxadiazol-2-yl)phenoxy)phenyl)propan-2-yl)phenoxy)cyclobutyl)aminoisoindolin-1,3-dione] registered a DC50 in series [1] (class symbols) of less than 10 nM. The AUC(0-inf) in series [2] is 5000 to 30000 ng·h/mL.
The matching figures for `Cc1nnc(-c2ccc(Oc3ccc(C(C)(C)c4ccc(O[C@H]5C[C@H](Nc6ccc7c(c6)C(=O)N(C6CCC(=O)NC6=O)C7=O)C5)cc4)cc3)nn2)o1` (stereo partly shown) [Example 330]: 11 to 100 nM and 5000 to 30000 ng·h/mL.
`C=CC(c1ccc(Oc2ncc(-n3nccn3)cn2)cc1)c1ccc(O[C@H]2C[C@H](Nc3ccc4c(c3)C(=O)N(C3CCC(=O)NC3=O)C4=O)C2)cc1` (stereo partly shown) [Example 370, 5-(((1r,3r)-3-(4-(1-(4-((5-(2H-1,2,3-triazole-2-yl)pyrimidin-2-yl)oxy)phenyl)allyl)phenoxy)cyclobutyl)amino)-2-(2,6-dioxopiperidin-3-yl)isoindolin-1,3-dione] displayed a DC50 in series [1] (class symbols) of 11 to 100 nM. Also, the AUC(0-inf) in series [2] was in the range of 5000 to 30000 ng·h/mL.
Taken in the same sequence, the figures for `CC(C)(c1ccc(OCc2cccc(-n3ccnn3)n2)cc1)c1ccc(O[C@H]2C[C@H](Nc3ccc4c(c3)C(=O)N(C3CCC(=O)NC3=O)C4=O)C2)cc1` (stereo partly shown) [Example 415] were 11 to 100 nM and 5000 to 30000 ng·h/mL.
In turn, `CC(C)(c1ccc(O)cc1)c1ccc(OCCCCCCCCOCCCCNc2ccc3c(c2)C(=O)N(C2CCC(=O)NC2=O)C3=O)cc1` (stereo not shown) [Example 438, 2-(2,6-dioxopiperidin-3-yl)-5-((4-((8-(4-(2-(4-hydroxylphenyl)propan-2-yl)phenoxy)octyl)oxy)butyl)amino)isoindolin-1,3-dione] gave a DC50 in series [1] (numeric values) of more than 2000 nM. The AUC(0-inf) in series [2] lay within 5000 to 30000 ng·h/mL.
In series [1] (class symbols), `CC(C)(c1ccc(OCc2ccnc(-n3cc(F)cn3)n2)cc1)c1ccc(O[C@H]2C[C@@H](Nc3ccc4c(c3)C(=O)N(C3CCC(=O)NC3=O)C4=O)C2)cc1` (stereo partly shown) [Example 460] came in with a DC50 of 11 to 100 nM. For the same compound, the AUC(0-inf) in series [2] fell in the range of 100 to 1000 ng·h/mL.
The matching figures for `Cc1nnc(-c2cnc(Oc3ccc(C(C)(C)c4ccc(O[C@H]5C[C@H](Nc6ccc7c(c6)C(=O)N(C6CCC(=O)NC6=O)C7=O)C5)cc4)cc3)nc2)o1` (stereo partly shown) [Example 475, 2-(2,6-dioxopiperidin-3-yl)-5-(((1r,3r)-3-(4-(2-(4-((5-(5-methyl-1,3,4oxadiazol-2-yl)pyrimidin-2-yl)oxy)phenyl)propan-2-yl)phenoxy)cyclobutyl)amino)isoindolin-1,3-dione]: 11 to 100 nM and 5000 to 30000 ng·h/mL.
In series [1] (class symbols), `CC(C)(c1ccc(OCc2ccnc(N3CC4(COC4)C3)n2)cc1)c1ccc(C(=O)NCCNc2ccc3c(c2)C(=O)N(C2CCC(=O)NC2=O)C3=O)cc1` (stereo not shown) [Example 501] returned a 50% degradation concentration (DC50) of 11 to 100 nM. Moreover, the AUC(0-inf) in series [2] was in the range of 1000 to 5000 ng·h/mL.
Taken in the same sequence, the figures for `CC(C)(c1ccc(OCc2ccnc(N3CC4(COC4)C3)n2)cc1)c1ccc(C(=O)Nc2ccc3c(c2)C(=O)N(C2CCC(=O)NC2=O)C3=O)cc1` (stereo not shown) [Example 504, 4-(2-(4-((2-(2-oxa-6-azaspiro[3.3]heptan-6-yl)pyrimidin-4-yl)methoxy)phenyl)propan-2-yl)-N-(2-(2,6-dioxopiperidin-3-yl)-1,3-dioxoisoindolin-5-yl)benzamide] were 101 to 1000 nM and 100 to 1000 ng·h/mL.
Taken in the same sequence, the figures for `O=C1CCC(N2C(=O)c3ccc(N[C@H]4C[C@H](Oc5ccc(Cc6ccc(Oc7cnc(-n8ccnn8)nc7)cc6)cc5)C4)cc3C2=O)C(=O)N1` (stereo partly shown) [Example 521] were 11 to 100 nM and 5000 to 30000 ng·h/mL.
As to `CC(=O)c1nccc(COc2ccc(C(C)(C)c3ccc(OC4CN(c5ccc6c(c5)C(=O)N(C5CCC(=O)NC5=O)C6=O)C4)cc3)cc2)n1` (stereo not shown) [Example 558], the DC50 in series [1] (numeric values) is more than 10000 nM. For the same compound, the AUC(0-inf) in series [2] was in the range of 5000 to 30000 ng·h/mL.
In series [1] (class symbols), `Cc1noc(-c2ccc(Oc3ccc(C(C)(C)c4ccc(O[C@H]5C[C@H](Nc6ccc7c(c6)C(=O)N(C6CCC(=O)NC6=O)C7=O)C5)cc4)cc3)cn2)n1` (stereo partly shown) [Example 582] came in with a DC50 of 11 to 100 nM. In addition, in series [2], the AUC(0-inf) was 1000 to 5000 ng·h/mL.
On to `Cc1nsc(Oc2ccc(C(C)(C)c3ccc(O[C@H]4C[C@H](Nc5ccc6c(c5)C(=O)N(C5CCC(=O)NC5=O)C6=O)C4)cc3)cc2)n1` (stereo partly shown) [Example 591, 2-(2,6-dioxopiperidin-3-yl)-5-((1r,3r)-3-(4-(2-(4-((3-methyl-1,2,4-thiadiazol-5-yl)oxy)phenyl)propan-2-yl)phenoxy)cyclobutyl)aminoisoindolin-1,3-dione], for which the 50% degradation concentration (DC50) in series [1] (class symbols) lay in the range of 11 to 100 nM. Besides, in series [2], the AUC(0-inf) lay within 5000 to 30000 ng·h/mL.
As to `Cc1nnc(-c2nnc(Oc3ccc(C(C)(C)c4ccc(O[C@H]5C[C@H](Nc6ccc7c(c6)C(=O)N(C6CCC(=O)NC6=O)C7=O)C5)cc4)cc3)s2)o1` (stereo partly shown) [Example 593], in series [1] (class symbols), the DC50 was 11 to 100 nM. Also, the AUC(0-inf) in series [2] was 5000 to 30000 ng·h/mL.
The matching figures for `Cc1nc(-c2cnc(Oc3ccc(C(C)(C)c4ccc(O[C@H]5C[C@@H](Nc6ccc7c(c6)C(=O)N(C6CCC(=O)NC6=O)C7=O)C5)cc4)cc3)cn2)no1` (stereo partly shown) [Example 598, 2-(2,6-dioxopiperidin-3-yl)-5-(((1s,3s)-3-(4-(2-(4-((5-(5-methyl-1,2,4-oxadiazol-3-yl)pyrazin-2-yl)oxy)phenyl)propan-2-yl)phenoxy)cyclobutyl)amino)isoindolin-1,3-dione]: 11 to 100 nM and 5000 to 30000 ng·h/mL.
The matching figures for `Cc1nc(-c2cncc(Oc3ccc(C(C)(C)c4ccc(O[C@H]5C[C@@H](Nc6ccc7c(c6)C(=O)N(C6CCC(=O)NC6=O)C7=O)C5)cc4)cc3)n2)no1` (stereo partly shown) [Example 599]: 11 to 100 nM and 5000 to 30000 ng·h/mL.
